Our source for the IC50 values is patent US20200405697A1, “Antitumor Agent” (Taiho Pharmaceutical Co., Ltd, priority 2017, published 2020).

For the assay, the target named is T1, human RNR (histidine tagged human M1 and human M2 proteins) (Homo sapiens, UniProt P23921).
T1 construct: made in house; host or cells: Escherichia coli
T1 sequence (P23921 1-792): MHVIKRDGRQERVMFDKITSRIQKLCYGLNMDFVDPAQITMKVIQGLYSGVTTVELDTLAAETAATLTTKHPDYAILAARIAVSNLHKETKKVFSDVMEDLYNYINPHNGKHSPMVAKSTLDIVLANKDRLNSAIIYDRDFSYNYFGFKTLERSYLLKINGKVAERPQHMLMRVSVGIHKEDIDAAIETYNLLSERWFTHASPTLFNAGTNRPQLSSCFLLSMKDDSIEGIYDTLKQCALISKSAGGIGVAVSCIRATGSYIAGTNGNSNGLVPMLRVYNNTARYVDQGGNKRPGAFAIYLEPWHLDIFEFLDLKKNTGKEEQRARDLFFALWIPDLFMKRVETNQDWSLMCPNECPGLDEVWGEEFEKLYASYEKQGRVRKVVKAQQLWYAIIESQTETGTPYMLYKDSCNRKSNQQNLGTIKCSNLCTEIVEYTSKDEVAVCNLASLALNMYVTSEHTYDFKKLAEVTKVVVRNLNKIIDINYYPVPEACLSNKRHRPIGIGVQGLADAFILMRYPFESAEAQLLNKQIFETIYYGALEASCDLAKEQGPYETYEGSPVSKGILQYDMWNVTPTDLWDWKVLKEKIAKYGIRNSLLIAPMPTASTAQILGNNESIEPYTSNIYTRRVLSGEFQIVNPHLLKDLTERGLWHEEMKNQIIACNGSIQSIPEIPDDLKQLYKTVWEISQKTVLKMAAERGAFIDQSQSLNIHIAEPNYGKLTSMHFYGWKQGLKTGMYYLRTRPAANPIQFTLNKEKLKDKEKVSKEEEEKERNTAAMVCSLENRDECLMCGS
Nature of the assay: Human RNR inhibition effect (dCDP formation from CDP). The class given is biochemical. The conditions noted are these: 10 μM CDP, 37° C. for 30 minutes, read-out: RNR inhibitory activity IC50. Summed up: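 His-tagged human M1 (isoform 1) and N-terminal 59-aa-truncated M2 (isoform 2), E. coli-expressed, Ni-purified, preincubated 20 min with compound (1% DMSO). Reaction with 10 μM CDP, 2 mM ATP, 0.24 mM NADPH, 6 mM DTT, 4 mM Mg acetate, 100 mM KCl, 50 mM HEPES pH 7.2, 30 min at 37° C. dCDP formed quantified by reverse-phase HPLC after heat stop.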

Broadly, the IC50 is the concentration that inhibits the measured activity by half.

For the molecule `Cc1ccc(F)c([C@@H](C)[C@H](NS(=O)(=O)c2ccc(Cl)cc2C(=O)NO)c2n[nH]c(=O)o2)c1C` [Example 286, 5-chloro-2-(N-((1S,2R)-2-(6-fluoro-2,3-dimethylphenyl)-1-(5-oxo-4,5-dihydro-1,3,4-oxadiazol-2-yl)propyl)sulfamoyl)-N-hydroxybenzamide], the IC50 turned out to be 0.07 µM.
As for `Cc1ccc(F)c([C@@H](C)[C@H](NS(=O)(=O)c2ccc(Cl)cc2C(N)=S)c2n[nH]c(=O)o2)c1C` [Example 287, 5-chloro-2-(N-((1S,2R)-2-(6-fluoro-2,3-dimethylphenyl)-1-(5-oxo-4,5-dihydro-1,3,4-oxadiazol-2-yl)propyl)sulfamoyl)benzothioamide], the 50% inhibitory concentration (IC50) was determined as 0.05 µM.
For `Cc1c(Cl)ccc(F)c1[C@@H](C)[C@H](NS(=O)(=O)c1ccc(Cl)c2c1OCCN2C)c1n[nH]c(=O)o1` [Example 289, 5-chloro-N-((1S,2R)-2-(3-chloro-6-fluoro-2-methylphenyl)-1-(5-oxo-4,5-dihydro-1,3,4-oxadiazol-2-yl)propyl)-4-methyl-3,4-dihydro-2H-benzo[b][1,4]oxazine-8-sulfonamide] the value was 0.13 µM.
For `COc1c(S(=O)(=O)N[C@H](c2n[nH]c(=O)o2)[C@H](C)c2c(F)ccc(C)c2C)ccc(Cl)c1C(C)=O` [Example 294, 3-acetyl-4-chloro-N-((1S,2R)-2-(6-fluoro-2,3-dimethylphenyl)-1-(5-oxo-4,5-dihydro-1,3,4-oxadiazol-2-yl)propyl)-2-methoxybenzenesulfonamide] the value was 0.11 µM; for `Cc1cccc([C@@H](C)[C@H](NS(=O)(=O)c2ccc(Cl)c3c2OCC=C3)c2n[nH]c(=O)o2)c1C` [Example 295, 5-chloro-N-((1S,2R)-2-(2,3-dimethylphenyl)-1-(5-oxo-4,5-dihydro-1,3,4-oxadiazol-2-yl)propyl)-2H-chromene-8-sulfonamide], 0.79 µM; for `COc1ccc(-c2ccc(F)c([C@@H](C)[C@H](NS(=O)(=O)c3ccc(Cl)cc3OC)c3n[nH]c(=O)o3)c2C)cc1` [Example 298, 4-chloro-N-((1S,2R)-2-(4-fluoro-4′-methoxy-2-methyl-[1,1′-biphenyl]-3-yl)-1-(5-oxo-4,5-dihydro-1,3,4-oxadiazol-2-yl)propyl)-2-methoxybenzenesulfonamide], 0.3 µM.
Regarding `COc1cc(Cl)ccc1S(=O)(=O)N[C@H](c1n[nH]c(=O)o1)[C@H](C)c1c(F)ccc(-c2cc(F)cc(F)c2)c1C` [Example 299, 4-chloro-2-methoxy-N-((1S,2R)-1-(5-oxo-4,5-dihydro-1,3,4-oxadiazol-2-yl)-2-(3′,4,5′-trifluoro-2-methyl-[1,1′-biphenyl]-3-yl)propyl)benzenesulfonamide], the IC50 is 0.94 µM.
In the case of `COc1cc(Cl)ccc1S(=O)(=O)N[C@H](c1n[nH]c(=O)o1)[C@H](C)c1c(F)ccc(-c2cccnc2)c1C` [Example 300, 4-chloro-N-((1S,2R)-2-(6-fluoro-2-methyl-3-(pyridin-3-yl)phenyl)-1-(5-oxo-4,5-dihydro-1,3,4-oxadiazol-2-yl)propyl)-2-methoxybenzenesulfonamide], the IC50 is 0.34 µM.
For `COc1cc(Cl)ccc1S(=O)(=O)N[C@H](c1n[nH]c(=O)o1)[C@H](C)c1c(F)ccc(-c2cc[nH]n2)c1C` [Example 301, 4-chloro-N-((1S,2R)-2-(6-fluoro-2-methyl-3-(1H-pyrazol-3-yl)phenyl)-1-(5-oxo-4,5-dihydro-1,3,4-oxadiazol-2-yl)propyl)-2-methoxybenzenesulfonamide] the value was 0.29 µM.
To `COc1cc(Cl)ccc1S(=O)(=O)N[C@H](c1n[nH]c(=O)o1)[C@H](C)c1c(F)ccc(-c2ccc(Cl)cc2)c1C` [Example 302, 4-chloro-N-((1S,2R)-2-(4′-chloro-4-fluoro-2-methyl-[1,1′-biphenyl]-3-yl)-1-(5-oxo-4,5-dihydro-1,3,4-oxadiazol-2-yl)propyl)-2-methoxybenzenesulfonamide] belongs 0.49 µM; to `COc1cc(Cl)ccc1S(=O)(=O)N[C@H](c1n[nH]c(=O)o1)[C@H](C)c1c(F)ccc(-c2cn[nH]c2)c1C` [Example 303, 4-chloro-N-((1S,2R)-2-(6-fluoro-2-methyl-3-(1H-pyrazol-4-yl)phenyl)-1-(5-oxo-4,5-dihydro-1,3,4-oxadiazol-2-yl)propyl)-2-methoxybenzensulfonamide], 0.16 µM.
For `COc1cc(Cl)ccc1S(=O)(=O)N[C@H](c1n[nH]c(=O)o1)[C@H](C)c1c(F)ccc(-c2cnn(C(F)F)c2)c1C` [Example 304, 4-chloro-N-((1S,2R)-2-(3-(1-(difluoromethyl)-1H-pyrazol-4-yl)-6-fluoro-2-methylphenyl)-1-(5-oxo-4,5-dihydro-1,3,4-oxadiazol-2-yl)propyl)-2-methoxybenzenesulfonamide] the value was 0.16 µM; for `COc1cc(Cl)ccc1S(=O)(=O)N[C@H](c1n[nH]c(=O)o1)[C@H](C)c1c(F)ccc(-c2ccn(C)n2)c1C` [Example 305, 4-chloro-N-((1S,2R)-2-(6-fluoro-2-methyl-3-(1-methyl-1H-pyrazol-3-yl)phenyl)-1-(5-oxo-4,5-dihydro-1,3,4-oxadiazol-2-yl)propyl)-2-methoxybenzenesulfonamide], 0.24 µM.
Regarding `COc1cc(Cl)ccc1S(=O)(=O)N[C@H](c1n[nH]c(=O)o1)[C@H](C)c1c(F)ccc(-c2cnn(C)c2)c1C` [Example 306, 4-chloro-N-((1S,2R)-2-(6-fluoro-2-methyl-3-(1-methyl-1H-pyrazol-4-yl)phenyl)-1-(5-oxo-4,5-dihydro-1,3,4-oxadiazol-2-yl)propyl)-2-methoxybenzenesulfonamide], the IC50 was determined as 0.09 µM.
For the molecule `COc1cc(Cl)ccc1S(=O)(=O)N[C@H](c1n[nH]c(=O)o1)[C@H](C)c1c(F)ccc(-c2c[nH]nc2C)c1C` [Example 308, 4-chloro-N-((1S,2R)-2-(6-fluoro-2-methyl-3-(3-methyl-1H-pyrazol-4-yl)phenyl)-1-(5-oxo-4,5-dihydro-1,3,4-oxadiazol-2-yl)propyl)-2-methoxybenzenesulfonamide], the IC50 was found to be 0.18 µM.
For the molecule `CCn1cc(-c2ccc(F)c([C@@H](C)[C@H](NS(=O)(=O)c3ccc(Cl)cc3OC)c3n[nH]c(=O)o3)c2C)cn1` [Example 310, 4-chloro-N-((1S,2R)-2-(3-(1-ethyl-1H-pyrazol-4-yl)-6-fluoro-2-methylphenyl)-1-(5-oxo-4,5-dihydro-1,3,4-oxadiazol-2-yl)propyl)-2-methoxybenzenesulfonamide], the IC50 amounted to 0.17 µM.
For `COc1cc(Cl)ccc1S(=O)(=O)N[C@H](c1n[nH]c(=O)o1)[C@H](C)c1c(F)ccc(-c2cnn(C3CC3)c2)c1C` [Example 311, 4-chloro-N-((1S,2R)-2-(3-(1-cyclopropyl-1H-pyrazol-4-yl)-6-fluoro-2-methylphenyl)-1-(5-oxo-4,5-dihydro-1,3,4-oxadiazol-2-yl)propyl)-2-methoxybenzenesulfonamide] the value was 0.22 µM; for `COc1cc(Cl)ccc1S(=O)(=O)N[C@H](c1n[nH]c(=O)o1)[C@H](C)c1c(F)ccc(-c2cnn(C3CCC3)c2)c1C` [Example 312, 4-chloro-N-((1S,2R)-2-(3-(1-cyclobutyl-1H-pyrazol-4-yl)-6-fluoro-2-methylphenyl)-1-(5-oxo-4,5-dihydro-1,3,4-oxadiazol-2-yl)propyl)-2-methoxybenzenesulfonamide], 0.22 µM.
